Laboratory results reported in patent publication US12710369B2, “Optical real-time biosensor” (CZ Biohub SF, LLC, priority 2018, dated 2026).

Assays:
[1] = system: serotonin aptamers; experiment: real-time measurement with one-color optical biosensor system, fiber-tethered signal-off serotonin aptamer switch; type: binding; conditions: specificity of 5-HT signal-off aptamer optical probe towards other molecules
Source text: In some embodiments, the optical biosensor system was used to measure other molecules, such as dopamine (DA) and serotonin ([…]). The aptamers for DA and 5-TH are converted into aptamer-switches. (See, e.g., Nakatsuka et al., Aptamer-field-effect Transistors Overcome Debye Length Limitations for Small-molecule Sensing, Science 362: 319-324 (2018).) Higher sensitivity and better photostability were achieved through improvements in detector alignment.
To evaluate the performance of the optical biosensor system in a biological matrix, spiked concentration of 5-HT and DA in an artificial cerebrospinal fluid (aCSF) or a cerebrospinal fluid (CSF), and in brain slices mediums were measured using a one-color optical biosensor system.
The optical biosensor system 2400 includes a laser source 2410, an optical beam splitter 2420, and a detector 2430. The optical biosensor system 2400 may include an optional battery for providing power to the laser source 2410 and the detector 2430. […]
Molecular switches (not shown) are attached to the second end 2466 of the optical waveguide 2462. […] When target molecules, such as dopamine or serotonin, bind to the molecular switches, the molecular switches may emit fluorescence light. The fluorescence light may have a second wavelength that is longer than the first wavelength of the excitation light. The emitted fluorescence light may be coupled back into the optical waveguide 2462 through the second end 2466 and be propagated through the optical waveguide 2462 to be emitted from the first end 2464.
The fluorescence light emitted from the […] of the optical waveguide 2462 may be collimated by the lens 2440 and incident on the optical beam splitter 2420. The optical beam splitter 2420 is configured to transmit the fluorescence light. In some embodiments, the optical beam splitter 2420 may be a dichroic beam splitter configured to have a high reflectance value for the first wavelength of the excitation light, and a high transmittance value for the second wavelength of the fluorescence light. […]

[2] = system: live brain slices (nucleus accumbens); experiment: optical fiber sensor in live brain slices, endogenous release of serotonin upon MDMA stimulation; type: cell-based, mouse; design: dose or concentration left out as unconfirmed; conditions: following infusion of MDMA for 10 minutes; 532 nm excitation; NAc
Source text: According to some embodiments, to measure endogenous release of DA and 5-HT upon drug (MDMA) stimulation with the optical biosensor in live brain slices, a rig system and a brain slice recording chamber are installed in a lab with all the necessary components, including: a gravity-perfusion system alimented by peristatic pump, temperature controller, oxygen lines, microscope, camera and micro-stage. It was noted that black curtains covering the entire rig system were necessary to minimize the background and fluctuations from room-light.
Initially, the optical fiber was successfully inserted in a brain slice without compromising or breaking the micron-size tip of the optical fiber. However, due to mechanical contact, the fluorescence signal was mostly lost during the insertion process. Subsequently, the fiber was protected by a capillary tube from mechanical breakage during the transfer processes onto the rig holder and bath. […]
After confirming the sensitivity, robustness, and specificity of the aptamer sensor in the rig system, test measurements were performed with live brain slices. […] After approximately 10 minutes of baseline measurements (aCSF) to determine the stability of the fluorescence signal in the brain environment over time and estimate the photobleaching rate, drug infusion at […] was started for 10 minutes. […]

[3] = system: serotonin aptamers; experiment: specificity test of the aptamers: MDMA spiked in control sample in the absence of brain slice (rig bath); type: binding; conditions: excess of MDMA (30 μM), no brain slice, oxygenated aCSF 37° C., 3 ml/min
Protocol: The stability of the fluorescence signal over time is characterized in a bath system (rig) under the appropriate conditions favorable for live brain slice measurements. This includes keeping the temperature of the bath at 37° C., with oxygenated artificial CSF (aCSF) flown in the chamber at a rate of 3 ml/min. A stable fluorescence signal (counts) was observed over tens of minutes under continuous laser excitation, which confirmed the robustness of the aptamers, fluorophores and the surface under such conditions. To test the specificity of the aptamers, an excess of MDMA (30 μM) was spiked in a control sample in the absence of brain slice.

Structure (SMILES) | sensor responses (fluorescence signal) [1] | fluorescence intensity, red channel (Cy5) and green channel (Cy3) [2] | change in the fluorescence signal [3]
O=C(O)Cc1c[nH]c2ccc(O)cc12 [5-hydroxyindoleacetic acid] | negligible | – | –
CNC(C)Cc1ccc2c(c1)OCO2 (centres unmarked) [MDMA] | – | clear drop in the fluorescence intensity | Minimal change
NCCc1ccc(O)c(O)c1 [dopamine] | negligible | – | –
CNC[C@H](O)c1ccc(O)c(O)c1 [epinephrine] | negligible | – | –
